Measurements as given in patent US20040044000A1, “Isoquinoline derivatives as matrix metalloproteinase inhibitors” (priority 2002, published 2004).
Like-named read-outs stand apart in the source and are kept apart here.

Legend:
Assay type in all cases: biochemical
[1] = biological target: MMP-3 catalytic domain (MMP-3CD) (Homo sapiens, UniProt P08254); test: Inhibition of MMP-3 catalytic domain (thiopeptolide substrate hydrolysis, MES pH 6.0)
Excerpt: (§1) The assays measure the amount by which a test compound reduces the hydrolysis of a thiopeptolide substrate catalyzed by a matrix metalloproteinase enzyme. Such assays are described in detail by Ye et al., in Biochemistry, 1992;31(45):11231-11235, which is incorporated herein by reference. One such assay is described below in Biological Method 1.
(§2) Thiopeptolide substrates show virtually no decomposition or hydrolysis at or below neutral pH in the absence of a matrix metalloproteinase enzyme. A typical thiopeptolide substrate commonly utilized for assays is Ac-Pro-Leu-Gly-thioester-Leu-Leu-Gly-OEt. A 100 μL assay mixture will contain 50 mM of N-2-hydroxyethylpiperazine-N′-2-ethanesulfonic acid buffer (“HEPES,” pH 7.0), 10 mM CaCl2, 100 μM thiopeptolide substrate, and 1 mM 5,5′-dithio-bis-(2-nitro-benzoic acid) (DTNB). The thiopeptolide substrate concentration may be varied, for example from 10 to 800 μM to obtain Km and Kcat values. The change in absorbance at 405 nm is monitored on a Thermo Max microplate reader (molecular Devices, Menlo Park, Calif.) at room temperature (22° C.). The calculation of the amount of hydrolysis of the thiopeptolide substrate is based on E412=13600 M^−1 cm^−1 for the DTNB-derived product 3-carboxy-4-nitrothiophenoxide. Assays are carried out with and without matrix metalloproteinase inhibitor compounds, and the amount of hydrolysis is compared for a determination of inhibitory activity of the test compounds.
(§3) Test compounds were evaluated at various concentrations in order to determine their respective IC50 values, the micromolar concentration of compound required to cause a 50% inhibition of catalytic activity of the respective enzyme.
It should be appreciated that the assay buffer used with MMP-3CD was 50 mM N-morpholinoethane sulfonate (“MES”) at pH 6.0 rather than the HEPES buffer at pH 7.0 described above.

[2] = biological target: T1, MMP-12 catalytic domain (MMP-12CD) (Homo sapiens, UniProt P39900); test: Inhibition of MMP-12 catalytic domain (thiopeptolide substrate hydrolysis)
T1 construct: MMP-3 catalytic domain, MMP-12 catalytic domain, MMP-14 catalytic domain, and MMP-17 catalytic domain
T1 sequence (P39900 106-263 limits assumed, species assumed): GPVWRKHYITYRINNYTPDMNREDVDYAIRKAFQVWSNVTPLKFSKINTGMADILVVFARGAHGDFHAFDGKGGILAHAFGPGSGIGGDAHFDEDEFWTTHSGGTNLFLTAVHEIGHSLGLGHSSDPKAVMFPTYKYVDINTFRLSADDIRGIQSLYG
Excerpt: as §1, §2, §3
(§4) The test described above for the inhibition of MMP-13 may also be adapted and used to determine the ability of the compounds of Formula I to inhibit the matrix metalloproteases MMP-1, MMP-2, MMP-3, MMP-7, MMP-9, MMP-12 and MMP-14.

[3] = biological target: MMP-14 catalytic domain (MMP-14CD) (Homo sapiens, UniProt P50281); test: Inhibition of MMP-14 catalytic domain (thiopeptolide substrate hydrolysis)
Excerpt: as §1, §2, §3, §4

[4] = biological target: T2, MMP-13 catalytic domain (MMP-13CD) (Homo sapiens, UniProt P45452); test: Inhibition of MMP-13 catalytic domain (thiopeptolide substrate hydrolysis)
T2 construct: use the catalytic domain of the MMP-13 enzyme, namely matrix metalloproteinase-13 catalytic domain (“MMP-13CD”), rather than the corresponding full-length enzyme
Excerpt: as §1
Some of the particular methods described below use the catalytic domain of the MMP-13 enzyme, namely matrix metalloproteinase-13 catalytic domain (“MMP-13CD”), rather than the corresponding full-length enzyme, MMP-13. It has been shown previously by Ye Qi-Zhuang, Hupe D., and Johnson L. (Current Medicinal Chemistry, 1996;3:407-418) that inhibitor activity against a catalytic domain of an MMP is predictive of the inhibitor activity against the respective full-length MMP enzyme.
as §2, §3

[5] = Biological Table 1, read-out: MMP-13CD IC50
[6] = Biological Table 2, compounds of Example 66, read-out: MMP-13CD IC50
[7] = read-out: IC50 with MMP-13 catalytic domain

Chain of MMP-3 catalytic domain (MMP-3CD) (P08254 100-272 limits assumed, species assumed): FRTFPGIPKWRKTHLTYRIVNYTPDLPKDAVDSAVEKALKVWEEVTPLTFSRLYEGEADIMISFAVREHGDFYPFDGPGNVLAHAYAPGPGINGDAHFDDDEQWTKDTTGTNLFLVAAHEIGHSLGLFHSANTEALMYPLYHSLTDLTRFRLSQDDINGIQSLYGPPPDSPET

Row | IC50 [4, 5] | IC50 [4, 6] | also measured | SMILES
1 | 0.24 µM | – | IC50 [1]: 19 µM; IC50 [2]: 24 µM; IC50 [3]: > 30 µM | COc1ccc(CNC(=O)c2ccc3ccn(Cc4ccc(C#N)cc4)c(=O)c3c2)cc1 [Example 36, 2-(4-cyanobenzyl)-1-oxo-1,2-dihydro-isoquinoline-7-carboxylic Acid 4-methoxybenzylamide]
2 | – | 20 µM | – | CC(C)(CO)Cn1ccc2ccc(C#CCc3ccccc3)cc2c1=O [Example 66y, 2-(3-Hydroxy-2,2-dimethyl-propyl)-7-(3-phenyl-prop-1-ynyl)-2H-isoquinolin-1-one]
3 | 2.2 µM | – | – | CSc1ccc(CNC(=O)c2ccc3ccn(Cc4ccc(S(C)(=O)=O)cc4)c(=O)c3c2)cc1 [Example 56, 2-(4-methane-sulfonylbenzyl)-1-oxo-1,2-dihydro-isoquinoline-7-carboxylic Acid 4-methyl-sulfanylbenzylamide]
4 | – | 50 µM | – | O=c1c2cc(C#CCc3ccccc3)ccc2ccn1CC(O)CO (stereo not shown) [Example 66e, 2-(2,3-Dihydroxy-propyl)-7-(3-phenyl-prop-1-ynyl)-2H-isoquinolin-1-one]
5 | 17 µM | – | – | N#Cc1ccc(Cn2ccc3ccc(C(=O)NCc4cncnc4)cc3c2=O)cc1 [Example 38, 2-(4-cyanobenzyl)-1-oxo-1,2-dihydro-isoquinoline-7-carboxylic Acid (pyrimidin-5-ylmethyl)amide]
6 | – | > 100 µM | – | O=c1c2cc(C#CCc3ccccc3)ccc2ccn1CC(CO)(CO)CO [Example 66b, 2-(3-Hydroxy-2,2-bis-hydroxymethyl-propyl)-7-(3-phenyl-prop-1-ynyl)-2H-isoquinolin-1-one]
7 | – | 22 µM | – | COC(=O)Cn1ccc2ccc(C#CCc3ccccc3)cc2c1=O [Example 66q, [1-Oxo-7-(3-phenyl-prop-1-ynyl)-1H-isoquinolin-2-yl]-acetic acid methyl ester]
8 | > 10 µM | – | – | Cc1ccc(CNC(=O)c2ccc3ccn(CCOc4ccccc4)c(=O)c3c2)cc1 [Example 47, 1-oxo-2-(2-phenoxyethyl)-1,2-dihydroisoquinoline-7-carboxylic Acid 4-methylbenzamide]
9 | – | > 100 µM | – | CCOC(=O)CCn1ccc2ccc(C#CCc3ccccc3)cc2c1=O [Example 66t, 3-[1-Oxo-7-(3-phenyl-prop-1-ynyl)-1H-isoquinolin-2-yl]-propionic acid ethyl ester]
10 | – | – | IC50 [4, 7]: 0.0018 µM | O=C(O)c1ccc(Cn2ccc3ccc(C#CCc4ccccc4)cc3c2=O)cc1 [Example 1, 4-[1-Oxo-7-(3-phenyl-prop-1-ynyl)-1H-isoquinolin-2-ylmethyl]benzoic Acid]
11 | – | 14 µM | – | CC(=O)OCCCCn1ccc2ccc(C#CCc3ccccc3)cc2c1=O [Example 66l, Acetic acid 4-[1-oxo-7-(3-phenyl-prop-1-ynyl)-1H-isoquinolin-2-yl]-butyl ester]
12 | 1.3 µM | – | – | N#Cc1ccc(Cn2ccc3ccc(C(=O)NCc4ccncc4)cc3c2=O)cc1 [Example 33, 2-(4-cyanobenzyl)-1-oxo-1,2-dihydro-isoquinoline-7-carboxylic Acid (pyridin-4-ylmethyl)amide]
13 | – | 19 µM | – | CC(C)(C)C(=O)Cn1ccc2ccc(C#CCc3ccccc3)cc2c1=O [Example 66ae, 2-(3,3-Dimethyl-2-oxo-butyl)-7-(3-phenyl-prop-1-ynyl)-2H-isoquinolin-1-one]
14 | – | 34 µM | – | COC(Cn1ccc2ccc(C#CCc3ccccc3)cc2c1=O)OC [Example 66h, 2-(2,2-Dimethoxy-ethyl)-7-(3-phenyl-prop-1-ynyl)-2H-isoquinolin-1-one]
15 | 12 µM | – | – | O=C(NCc1cncnc1)c1ccc2ccn(Cc3ccc(F)c(F)c3)c(=O)c2c1 [Example 26, 2-(3,4-difluorobenzyl)-1-oxo-1,2-dihydroisoquinoline-7-carboxylic Acid (pyrimidin-5-ylmethyl)-amide]
16 | 3.4 µM | – | – | N#Cc1ccc(Cn2ccc3ccc(C(=O)NCc4cccnc4)cc3c2=O)cc1 [Example 34, 2-(4-cyanobenzyl)-1-oxo-1,2-dihydro-isoquinoline-7-carboxylic acid (pyridin-3-ylmethyl)amide]
17 | 49 µM | – | – | O=C(NCCn1cccc1)c1ccc2ccn(Cc3ccc(-c4nn[nH]n4)cc3)c(=O)c2c1 [Example 63, 1-oxo-2-[4-(2H-tetrazol-5-yl)benzyl]-1,2-dihydroisoquinoline-7-carboxylic Acid (2-pyrrol-1-yl-ethyl)amide]
18 | – | 24 µM | – | O=c1c2cc(C#CCc3ccccc3)ccc2ccn1CC1OCCO1 [Example 66n, 2-1,3-Dioxolan-2-ylmethyl-7-(3-phenyl-prop-1-ynyl)-2H-isoquinolin-1-one]
19 | 4.2 µM | – | – | CSc1ccc(CNC(=O)c2ccc3ccn(CCOc4ccccc4)c(=O)c3c2)cc1 [Example 48, 1-oxo-2-(2-phenoxyethyl)-1,2-dihydroisoquinoline-7-carboxylic Acid 4-methylsulfanylbenzamide]
20 | 55 µM | – | – | O=C(NCc1cccnc1)c1ccc2ccn(CCOc3ccccc3)c(=O)c2c1 [Example 42, 1-oxo-2-(2-phenoxyethyl)-1,2-dihydroisoquinoline-7-carboxylic Acid (pyridin-3-ylmethyl)amide]
21 | – | – | IC50 [4, 7]: 0.052 µM | O=c1c2cc(C#CCc3ccccc3)ccc2ccn1Cc1cccc(Cl)c1 [Example 10, 2-(3-Chlorobenzyl)-7-(3-phenylprop-1-ynyl)-2H-isoquinolin-1-one]
22 | > 100 µM | – | – | O=C(NCc1cncnc1)c1ccc2ccn(CCOc3ccccc3)c(=O)c2c1 [Example 46, 1-oxo-2-(2-phenoxyethyl)-1,2-dihydroisoquinoline-7-carboxylic Acid (pyrimidin-5-ylmethyl)-amide]
23 | 1.8 µM | – | – | O=C(O)c1ccc(Cn2ccc3ccc(C(=O)NCc4cncnc4)cc3c2=O)cc1 [Example 28, 4-[1-oxo-7-[(pyrimidin-5-ylmethyl)carbamoyl]-1H-isoquinolin-2-ylmethyl]benzoic Acid]
24 | > 10 µM | – | – | Cc1ccc(CNC(=O)c2ccc3ccn(Cc4ccc(C#N)cc4)c(=O)c3c2)cc1 [Example 39, 2-(4-cyanobenzyl)-1-oxo-1,2-dihydro-isoquinoline-7-carboxylic Acid 4-methylbenzylamide]
25 | – | > 30 µM | – | CC1OCCCC1n1ccc2ccc(C#CCc3ccccc3)cc2c1=O (stereo not shown) [Example 66g, 2-(2-Methyl-tetrahydro-pyran-3-yl)-7-(3-phenyl-prop-1-ynyl)-2H-isoquinolin-1-one]
26 | 0.095 µM | – | IC50 [1]: 13 µM; IC50 [2]: 13 µM; IC50 [3]: > 30 µM | COc1cccc(CNC(=O)c2ccc3ccn(Cc4ccc(C#N)cc4)c(=O)c3c2)c1 [Example 37, 2-(4-cyanobenzyl)-1-oxo-1,2-dihydro-isoquinoline-7-carboxylic Acid 3-methoxybenzylamide]
27 | – | 3.9 µM | – | N#CCCCCCCn1ccc2ccc(C#CCc3ccccc3)cc2c1=O [Example 66aj, 7-[1-Oxo-7-(3-phenyl-prop-1-ynyl)-1H-isoquinolin-2-yl]-heptanenitrile]
28 | 0.4 µM | – | IC50 [1]: 7 µM; IC50 [2]: > 10 µM; IC50 [3]: 81 µM | COc1cc(CNC(=O)c2ccc3ccn(Cc4ccc(C#N)cc4)c(=O)c3c2)ccn1 [Example 35, 2-(4-cyanobenzyl)-1-oxo-1,2-dihydro-isoquinoline-7-carboxylic Acid (2-methoxypyridin-4-ylmethyl)amide]
